System: Mycobacterium tuberculosis
Assay: Antimicrobial activity against Mycobacterium bovis BCG after 3 days by broth microdilution method
Format: functional
Conditions: variant bovis BCG, 72 h

Row | SMILES | MIC
1 | C[C@@H]1C[C@@H](O)[C@]2(O)O[C@@H]3C[C@@]4(C=O)[C@@H](CC[C@@H]5[C@@H]4CC[C@]4(C)[C@@H](C6=CC(=O)OC6)C[C@@H](O)[C@]54O)C[C@H]3O[C@@H]2C1 | > 80 µg/mL
2 | CO[C@@H]1C[C@@H](C)C[C@H]2O[C@@H]3C[C@@H]4CC[C@@H]5[C@H](CC[C@]6(C)[C@@H](C7=CC(=O)OC7)C[C@@H](O)[C@]56O)[C@@]4(C=O)C[C@H]3O[C@@]12O | > 80 µg/mL
3 | C[C@@H]1C[C@@H](O)[C@]2(O)O[C@@H]3C[C@@]4(C)[C@@H](CC[C@@H]5[C@@H]4CC[C@]4(C)[C@@H](C6=CC(=O)OC6)C[C@@H](O)[C@]54O)C[C@H]3O[C@@H]2C1 | > 80 µg/mL
4 | C[C@H]1C[C@H]2O[C@@H]3C[C@@H]4CC[C@@H]5[C@H](CC[C@]6(C)[C@@H](C7=CC(=O)OC7)CC[C@]56O)[C@@]4(C=O)C[C@H]3O[C@@]2(O)[C@H](O)[C@@H]1O | > 80 µg/mL
5 | C[C@H]1C[C@H]2O[C@@H]3C[C@@H]4CC[C@@H]5[C@H](CC[C@]6(C)[C@@H](C7=CC(=O)OC7)C[C@@H](O)[C@]56O)[C@@]4(C=O)C[C@H]3O[C@@]2(O)[C@@]2(C1)N=CCS2 | > 80 µg/mL
6 | C[C@]12[C@H](O)C[C@H]3[C@@H](CC[C@H]4C[C@H](O)CC[C@@]43CO)[C@@]1(O)CC[C@@H]2C1=CC(=O)OC1 | > 80 µg/mL
7 | C[C@]12[C@H](O)C[C@H]3[C@@H](CC[C@H]4C[C@H](O)CC[C@@]43C=O)[C@@]1(O)CC[C@@H]2C1=CC(=O)OC1 | > 80 µg/mL
8 | C[C@]12C[C@@H](O)[C@H](O)C[C@@H]1CC[C@@H]1[C@@H]2CC[C@]2(C)[C@@H](C3=CC(=O)OC3)C[C@@H](O)[C@]12O | > 80 µg/mL
9 | C[C@]12[C@H](O)C[C@H]3[C@@H](CC[C@H]4C[C@@H](O)CC[C@@]43CO)[C@@]1(O)CC[C@@H]2C1=CC(=O)OC1 | > 80 µg/mL
10 | C[C@@H]1C[C@@H](O)[C@]2(O)O[C@@H]3C[C@@]4(C=O)[C@@H](CC[C@@H]5[C@@H]4CC[C@]4(C)[C@@H](C6=CC(=O)OC6)CC[C@]54O)C[C@H]3O[C@@H]2O1 [CALACTIN] | > 80 µg/mL
11 | C[C@@H]1C[C@@]2(N=CCS2)[C@]2(O)O[C@@H]3C[C@@]4(C=O)[C@@H](CC[C@@H]5[C@@H]4CC[C@]4(C)[C@@H](C6=CC(=O)OC6)CC[C@]54O)C[C@H]3O[C@@H]2O1 [USCHARIN] | > 80 µg/mL

— ChEMBL document CHEMBL3616435, “Cytotoxic cardenolides from the latex of Calotropis procera” (Bioorg Med Chem Lett, 2015)
